# In paper PMC5943252, “Contrasting roles for actin in the cellular uptake of cell penetrating peptide conjugates” (Scientific Reports, 2018):
# “Also recorded” adds a separate entry of the source.
# How the values were obtained:
# [1] = test system: A431 cells; assay: Flow cytometry of cellular uptake of EGFP-R8 in the presence of actin inhibitors; type: cell-based; conditions: for Normalised Fluoresence Intensity (EGFP-R8): three independent experiments
# Protocol: (§1) A431 cells were seeded onto 12-well plates and cultured for 24 hr to be ~80% confluent on the day of experiment. Cells were washed twice with PBS and then incubated with diluent control (DMSO/dH2O) or actin inhibitors as previously described. They were then loaded with serum-free DMEM containing either 2 µM EGFP-R8, 5 µg/ml TF-647 or 0.1 mg/ml Dex-647 in the presence or absence of actin inhibitors for times stipulated in the figure legends. The plates were then placed on ice to prevent further uptake and washed 3x with either ice-cold PBS or 0.5 mg/ml heparin in PBS. To remove the plasma membrane bound TF, cells were washed 3x with ice-cold PBS followed by an incubation for 1 min in ice-cold acid wash (0.2 M acetic acid, 0.2 M NaCl, pH 2.0)[33]. All cells were then washed twice with PBS at room temperature before trypsinisation at 37 °C for 5 min before placing the detached cells in centrifuge tubes and centrifuging at 4 °C for 3 min at 800 × g. The obtained cell suspension was washed 3x with ice-cold PBS and finally resuspended in 300 µl ice-cold PBS for measurement of cell-associated fluorescence (cell gate 50,000 cells) by flow cytometry on a BD FACSVerse utilising a 488 laser and 527/32 filter for EGFP analysis and a 633 nm laser and 660/10 filter for Alexa 647. Cells were gated using FSC-A/SSC-A to isolate single cell populations and analysed using FlowJo.
# Flow cytometry measurements represent the mean fluorescence from three independent experiments performed in duplicate, where each individual data point was the geometric mean. A two-tailed unpaired Students t-test was used to test for differences within experiments. Significant differences were classed as having a P value of < 0.05.
# [2] = test system: actin architecture in A431 cells; assay: Actin cytoskeleton visualisation (Rh-P staining, confocal microscopy); type: cell-based
# Protocol: Analysis was performed on a Leica SP5 confocal laser scanning microscope, equipped with laser lines: 405 Blue Diode (Excitation wavelength 405 nm for Hoechst 33342) Argon (Excitation wavelength 488 nm for Alexa 488 or EGFP), Helium Neon Laser 1 (Excitation wavelength 543 nm for Tetramethyl-Rhodamine Phalloidin (Rh-P)) and Laser 2 (Excitation wavelength 633 nm for Alexa 647 conjugates). All images presented in this study were obtained using a HCX PL APO 63x 1.4 NA oil immersion objective with Leica Type F immersion oil. Parameters “Gain” and “Off-set” of the individual photomultiplier tubes were adjusted between experiments in order to obtain optimal image acquisition avoiding saturation. For multi-channel image acquisition, the channels were scanned in a sequential recording mode to avoid spectral cross-talk caused by overlapping excitation and/or emission spectra of fluorophores. Acquisition mode “XYZ” and image resolutions (pixels/image) of 512 × 512 or 1024 × 1024 were selected and pinhole size was set to 1 Airy Unit. Depending on acquisition requirements the scan speed was set as either 400 or 700 Hz and for single section images, the same optical section was scanned 3x to generate a line average image. Captured images were then analysed using ImageJ. In some cases (live cell imaging) the same cells were also imaged using […] microscopy (DIC).
# A recently described method was utilised giving information on actin architecture at different regions of the cells termed basal and cell body and apex (CBA). For actin staining, HeLa (0.5 × 10^6 cells/well) or A431 (1.0 × 10^6 cells/well) cells in 2.5 mL D-MEM containing 10% FBS were seeded on round borosilicate No.1.5 cover slips in 6 –well plates and allowed to adhere for 24 hr at 37 °C/5% CO2, to reach a confluence of ~80%. The cells were then treated with actin disrupters as described above, washed 3x with PBS and fixed for 15 min at room temperature with 3% PFA in PBS. Cells were then washed 3x with PBS and permeabilised with 0.2% Triton X-100 in PBS at room temperature for 5 min, washed 3x with PBS and stained for cell nuclei with 1.0 µg/ml Hoechst 33342 in PBS and for polymerised actin with 1.0 µg/ml Rh-P in PBS for 15 min at room temperature. The cells were finally washed 3x with PBS and once with distilled water, coverslips were mounted in DAKO mounting medium on glass microscope slides and imaged by confocal microscopy.
# [3] = test system: A431 cells; assay: Live cell confocal microscopy of uptake of endocytic probes and R8 conjugates, with or without actin inhibitors; type: cell-based
# Protocol: (§2) HeLa or A431 cells were seeded on 35 mm MatTek dishes (Ashland, US) at respective densities of 5 × 10^5 cells/dish and 1.0 × 10^6 cells/dish and maintained in 2.5 mL D-MEM containing 10%, 100 IU/mL penicillin and 100 µg/mL streptomycin. Cells were then allowed to adhere for 24 hr at 37 °C/5% CO2 to reach a confluence of ~80%. On the day of experimentation, they were washed with PBS and then incubated with 100 µl serum-free D-MEM (thus reducing well described serum binding effects[32]) containing either 2 µM CPP conjugate (R8-Alexa488 or EGFP-R8), 5 µg/ml transferrin-Alexa 647 (TF-647) or 0.1 mg/ml dextran (10 kDa)-Alexa 647 (Dex-647). The cells were then incubated for 1 hr (or 30 min for TF-647) at 37 °C/5% CO2 before washing 3x with PBS (TF-647 or Dex-647) or PBS 0.5 mg/mL heparin (R8-conjugates). They were then washed once with PBS, prior to the addition of 2 mL of imaging medium (phenol red free RPMI, 20 mM HEPES pH 7.4) and analysis by live cell confocal microscopy.
# Cells were seeded on MatTek dishes as previously described and were washed with PBS before preincubation at 37 °C with diluent control (DMSO) or actin inhibitors: 10 µM Cyt D for 15 min; 0.1–1 µM Lat B for 30 min; 0.2–4 µM JAS for 45 min; 50–100 µM Y27632 for 4 hr in serum-free D-MEM at 37 °C/5% CO2. Endocytic probes (TF-647, Dex-647) or R8-conjugates were then incubated with the cells in the absence (control) or presence of the inhibitors and further incubated at 37 °C/5% CO2 for times specified in figure legends prior to analysis by confocal microscopy. For pulse chase experiments, A431 cells were incubated with 0.1 mg/ml Dex-647 for 2 hr (pulse) followed by washing and a further 4 hr (chase) in fresh complete growth medium. EGFP-R8 (2 µM) was then added for 1 hr in the absence or presence of 10 µM Cyt D. EGFP-R8 and Dex-647 subcellular distribution was then analysed in live cells using confocal microscopy. For low temperature experiments, cells were preincubated with Cyt D as above and then placed on ice for 2 min prior to addition of ice cold EGFP-R8. The cells were then maintained under these conditions for 1 hr prior to analysis by confocal microscopy.
# Analysis was performed on a Leica SP5 confocal laser scanning microscope, equipped with laser lines: 405 Blue Diode (Excitation wavelength 405 nm for Hoechst 33342) Argon (Excitation wavelength 488 nm for Alexa 488 or EGFP), Helium Neon Laser 1 (Excitation wavelength 543 nm for Tetramethyl-Rhodamine Phalloidin (Rh-P)) and Laser 2 (Excitation wavelength 633 nm for Alexa 647 conjugates). All images presented in this study were obtained using a HCX PL APO 63x 1.4 NA oil immersion objective with Leica Type F immersion oil. Parameters “Gain” and “Off-set” of the individual photomultiplier tubes were adjusted between experiments in order to obtain optimal image acquisition avoiding saturation. For multi-channel image acquisition, the channels were scanned in a sequential recording mode to avoid spectral cross-talk caused by overlapping excitation and/or emission spectra of fluorophores. Acquisition mode “XYZ” and image resolutions (pixels/image) of 512 × 512 or 1024 × 1024 were selected and pinhole size was set to 1 Airy Unit. Depending on acquisition requirements the scan speed was set as either 400 or 700 Hz and for single section images, the same optical section was scanned 3x to generate a line average image. Captured images were then analysed using ImageJ. […]
# [4] = test system: A431; conditions: cited from earlier work
# Text: (§3) Cyt D binds to the fast-growing ends of actin nuclei and filaments, preventing addition of monomeric actin to these sites. […] Here we further explored these contradictory effects by also performing uptake studies with recomb ...
# [5] = test system: HeLa; conditions: cited from earlier work
# Text: as §3
# [6] = test system: HeLa cells; assay: Live cell confocal microscopy of uptake of endocytic probes and R8 conjugates, with or without Cyt D; type: cell-based; conditions: 10 µM Cyt D, 15 min preincubation
# Protocol: as §2, with “They were then washed once with PBS, prior to the addition of 2 mL of imaging medium (phenol red free RPMI, 20 mM HEPES pH 7.4) and analysis by live cell confocal microscopy.” left out
# Cells were seeded on MatTek dishes as previously described and were washed with PBS before preincubation at 37 °C with diluent control (DMSO) or actin inhibitors: 10 µM Cyt D for 15 min; 0.1–1 µM Lat B for 30 min; 0.2–4 µM JAS for 45 min; 50–100 µM Y27632 for 4 hr in serum-free D-MEM at 37 °C/5% CO2. […] EGFP-R8 (2 µM) was then added for 1 hr in the absence or presence of 10 µM Cyt D. EGFP-R8 and Dex-647 subcellular distribution was then analysed in live cells using confocal microscopy. […]
# [7] = test system: A431 cells; assay: Flow cytometry of transferrin-Alexa647 uptake with acid wash; type: cell-based; conditions: 10 µM Cyt D, 15 min preincubation, then 5 µg/ml TF-647 for 30 min with Cyt D, acid washing of surface label, three separate experiments
# Protocol: as §1, with “All cells were then washed twice with PBS at room temperature before trypsinisation at 37 °C for 5 min before placing the detached cells in centrifuge tubes and centrifuging at 4 °C for 3 min at 800 × g.” left out
# Flow cytometry measurements represent the mean fluorescence from three independent experiments performed in duplicate, where each individual data point was the geometric mean. […]
SMILES,"Normalised Fluoresence Intensity (EGFP-R8) ([1]; 4 µM JAS, 45 min preincubation, then 2 µM EGFP-R8 for 1 hr with JAS, mean of geometric means)","fold increase in fluorescence (EGFP-R8 uptake) ([1]; 4 µM JAS, 45 min preincubation, then 2 µM EGFP-R8 for 1 hr with JAS, vs diluent control (0.4% v/v DMSO), P = 0.0025)","effect on actin organisation ([2]; A431 cells, 0.2 µM JAS, 45 min, Rh-P staining, basal and CBA regions)","effect on actin organisation ([2]; A431 cells, 2 µM JAS, 45 min, Rh-P staining)","effect on actin organisation (actin staining) ([2]; A431 cells, 4 µM JAS, 45 min, Rh-P staining)","effect on EGFP-R8 uptake ([3]; 2–4 µM JAS, 45 min preincubation, then 2 µM EGFP-R8 for 1 hr with JAS)","effect on uptake of Alexa488-CPPs R8 and Tat ([4]; A431, flow cytometry)",effect on uptake of dextran ([4]; A431 cells),effect on uptake of dextran ([5]; HeLa cells),"effect on uptake of Alexa488-CPPs R8 and Tat ([5]; HeLa, flow cytometry)","Normalised Fluoresence Intensity (EGFP-R8) ([1]; 10 µM Cyt D, 15 min preincubation, then 2 µM EGFP-R8 for 1 hr with Cyt D, geometric means, normalised to diluent control)","fold increase in intracellular fluorescence (EGFP-R8 uptake) ([1]; 10 µM Cyt D, 15 min preincubation, then 2 µM EGFP-R8 for 1 hr with Cyt D, serum-free D-MEM, 37 °C, washed, trypsinised, vs diluent control, P = 0.0036, three independent experiments)","effect on internalisation of R8-Alexa 488 ([6]; then 2 µM R8-Alexa 488 for 1 hr with Cyt D, heparin wash)","effect on cell associated transferrin fluorescence ([6]; then 5 µg/ml TF-647 for 30 min with Cyt D, vs control)",effect on actin organisation ([2]; Cyt D at concentrations >5 µM),"effect on internalisation of EGFP-R8 ([3]; 10 µM Cyt D, 15 min preincubation, then 2 µM EGFP-R8 for 1 hr with Cyt D, heparin wash)","effect on uptake of R8-Alexa488 ([3]; 10 µM Cyt D, 15 min preincubation, then 2 µM R8-Alexa488 for 1 hr with Cyt D, heparin wash)","effect on uptake of dextran-Alexa647 ([3]; 10 µM Cyt D, 15 min preincubation, then 0.1 mg/ml 10 kDa Dex-647 for 1 hr with Cyt D)",effect on fluorescence uptake of transferrin [7]
"C/C1=C\[C@H](C)C[C@H](C)OC(=O)C[C@H](c2ccc(O)cc2)NC(=O)[C@@H](Cc2c(Br)[nH]c3ccccc23)N(C)C(=O)[C@H](C)NC(=O)[C@@H](C)C1 [JAS, Jasplakinolide]",4.00,four,actin staining was more prominent on the cell periphery,actin staining appeared in large clumps,completely lost from all cells,dramatic increase,–,–,–,–,–,–,–,–,–,–,–,–,–
"C=C1[C@@H](C)[C@H]2[C@H](Cc3ccccc3)NC(=O)[C@]23[C@H](OC(C)=O)/C=C/[C@@](C)(O)C(=O)[C@@H](C)C/C=C/[C@H]3[C@@H]1O [Cyt D, cytochalasin D]",–,–,–,–,–,–,inhibited,increased uptake,no effect,inhibited,4.55,4.5 fold,inhibited; also recorded: reduction in uptake,not markedly different,completely destroys actin organisation,dramatically enhanced,less of a noticeable reduction in uptake; also recorded: inhibition,dramatically increased,no difference in fluorescence uptake
